Some results are limits rather than exact numbers.

A short description of data set [1]: Antiproliferative activity against refractory human prostate cancer cells. The class given is functional, cell-based. To be noted: Prostate tumor cell line.
For data set [2], the target named is T1, Androgen receptor (Homo sapiens) (UniProt P10275).
T1 sequence (whole entry): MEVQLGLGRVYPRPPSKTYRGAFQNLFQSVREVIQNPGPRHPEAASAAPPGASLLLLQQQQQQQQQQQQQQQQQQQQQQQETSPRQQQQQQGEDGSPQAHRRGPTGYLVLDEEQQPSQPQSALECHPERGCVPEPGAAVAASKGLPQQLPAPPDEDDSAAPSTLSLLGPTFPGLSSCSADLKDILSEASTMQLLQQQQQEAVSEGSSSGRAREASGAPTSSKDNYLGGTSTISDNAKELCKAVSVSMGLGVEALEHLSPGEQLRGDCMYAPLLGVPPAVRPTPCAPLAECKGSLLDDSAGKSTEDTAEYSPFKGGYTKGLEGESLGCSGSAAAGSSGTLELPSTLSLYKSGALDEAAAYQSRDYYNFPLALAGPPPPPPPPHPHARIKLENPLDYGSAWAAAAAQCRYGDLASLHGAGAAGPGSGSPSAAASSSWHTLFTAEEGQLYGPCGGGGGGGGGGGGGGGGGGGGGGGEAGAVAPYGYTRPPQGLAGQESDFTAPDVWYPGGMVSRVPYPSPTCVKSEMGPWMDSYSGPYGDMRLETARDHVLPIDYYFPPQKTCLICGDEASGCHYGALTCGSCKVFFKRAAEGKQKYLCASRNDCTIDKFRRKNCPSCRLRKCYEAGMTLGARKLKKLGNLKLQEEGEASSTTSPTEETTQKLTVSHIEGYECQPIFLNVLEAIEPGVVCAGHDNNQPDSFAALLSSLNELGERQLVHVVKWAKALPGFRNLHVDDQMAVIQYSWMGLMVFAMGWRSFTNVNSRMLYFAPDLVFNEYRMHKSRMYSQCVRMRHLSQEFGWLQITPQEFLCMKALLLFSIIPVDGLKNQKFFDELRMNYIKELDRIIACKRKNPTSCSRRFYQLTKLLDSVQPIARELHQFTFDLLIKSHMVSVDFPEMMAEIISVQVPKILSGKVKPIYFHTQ
Put plainly: Induction of degradation of Androgen receptor in human LNCaP cells. The class given is cell-based.

The target in data set [3] is GABA-A receptor; anion channel. Put plainly: Binding affinity to GABA A receptor (unknown origin). The class given is protein-complex assay, Homo sapiens.
Data set [4] concerns Rattus norvegicus. As to the kind of experiment: Anti-androgenic activity in testosterone-treated castrated rat assessed as reduction in prostate weight at 2 mg administered orally per day for 5 days. It is filed as functional. Also noted: Activity: scale not given: the % may be the effect or the level left. The note with it: route po, time 5 day.
Data set [5] concerns Rattus norvegicus. Put plainly: Anti-androgenic activity in male Wistar rat assessed as decrease in ventral prostate weight at 10 mg/kg, po administered for 15 days. It is filed as functional. Also noted: Activity: scale not given: the % may be the effect or the level left. The note with it: time 15 day.
The target in data set [6] is T1, Androgen receptor (Homo sapiens). As to the kind of experiment: Induction of degradation of Androgen receptor (unknown origin) at 7.5 uM.
Data set [7] relates to Androgen receptor (Homo sapiens), P10275 [UNDEFINED MUTATION]. Put plainly: Induction of degradation of Androgen receptor splice variant 3 (unknown origin) at 7.5 uM.
Data set [8] in a line: In vivo antagonist activity at Androgen receptor assessed as reduction in wax ester in golden hamster ear model. The class given is functional, Cricetinae. Details: concentration or dose not given beside the values.
Data set [9] concerns the target T2, Androgen receptor (Homo sapiens, UniProt P10275).
T2 sequence (P10275 whole entry): T1 sequence (whole entry)
Put plainly: Binding affinity to Androgen receptor (unknown origin). The note with it: read-out: IC50.

The next data set relates to LNCaP. As to the kind of experiment: Antiproliferative activity against human LNCaP cells. The class given is functional, cell-based.
The test system of a further data set is SC-3. Put plainly: Antiproliferative activity against mouse SC-3 cells. It is filed as functional, cell-based.
The target of data set [10] is T2, Androgen receptor. Put plainly: Binding affinity to human Androgen receptor.
Data set [11] addresses T2, Androgen receptor. As to the kind of experiment: Antagonist activity at Androgen receptor in human MDA-kb2 cells. It is filed as cell-based.
Data set [12] concerns the target T2, Androgen receptor. As to the kind of experiment: Partial agonist activity at human Androgen receptor.
The target of data set [13] is T2, Androgen receptor. Put plainly: Displacement of [3H]DHT from Androgen receptor expressed in human MDA-MB-453 cells. The class given is cell-based. Background: Displacement assays read how much labelled ligand stays bound in the presence of the test substance.
The target in data set [14] is T2, Androgen receptor. Put plainly: Antagonist activity at Androgen receptor in human MDA-MB-453 cells measured by SEAP reporter gene assay. It is filed as cell-based.
Data set [15] deals with T2, Androgen receptor. Put plainly: Antagonist activity at Androgen receptor in human LNCaP cells measured by SEAP reporter gene assay. The class given is cell-based.
Data set [16] concerns the target T1, Androgen receptor (Homo sapiens). Put plainly: Agonist activity at androgen receptor (unknown origin) at 1 uM relative to control. The note with it: filed as agonist.
Data set [17] addresses T2, Androgen receptor. Put plainly: Agonist activity to human Androgen receptor in African green monkey COS-7 cells measured by luciferase reporter assay. The class given is cell-based.
The nature of data set [18]: Oral bioavailability in mouse. It is filed as ADME, organism-based. The note with it: in vivo.
In data set [19] the target is T3, Protein cereblon/Androgen receptor/Cullin-4A (Homo sapiens, UniProt P10275+Q96SW2+Q13619). Put plainly: Protac activity at CRBN/Cullin 4A/Androgen receptor in human VCaP cells assessed as Androgen receptor degradation. It is filed as cell-based.
T3 sequence (Q96SW2 whole entry, one chain of several): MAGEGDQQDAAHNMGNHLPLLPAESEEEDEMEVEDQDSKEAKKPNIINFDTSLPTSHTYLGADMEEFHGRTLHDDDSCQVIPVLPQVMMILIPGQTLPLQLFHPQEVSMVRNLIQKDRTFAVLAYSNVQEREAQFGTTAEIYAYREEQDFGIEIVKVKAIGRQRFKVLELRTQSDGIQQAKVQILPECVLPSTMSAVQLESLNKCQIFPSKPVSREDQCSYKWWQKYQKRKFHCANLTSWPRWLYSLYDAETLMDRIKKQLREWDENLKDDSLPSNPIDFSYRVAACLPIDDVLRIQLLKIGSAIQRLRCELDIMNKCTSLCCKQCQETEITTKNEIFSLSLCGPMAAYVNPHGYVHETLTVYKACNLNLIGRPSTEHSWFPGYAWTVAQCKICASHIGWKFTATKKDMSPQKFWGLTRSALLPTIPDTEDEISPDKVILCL
T3 sequence (Q13619 whole entry, one chain of several): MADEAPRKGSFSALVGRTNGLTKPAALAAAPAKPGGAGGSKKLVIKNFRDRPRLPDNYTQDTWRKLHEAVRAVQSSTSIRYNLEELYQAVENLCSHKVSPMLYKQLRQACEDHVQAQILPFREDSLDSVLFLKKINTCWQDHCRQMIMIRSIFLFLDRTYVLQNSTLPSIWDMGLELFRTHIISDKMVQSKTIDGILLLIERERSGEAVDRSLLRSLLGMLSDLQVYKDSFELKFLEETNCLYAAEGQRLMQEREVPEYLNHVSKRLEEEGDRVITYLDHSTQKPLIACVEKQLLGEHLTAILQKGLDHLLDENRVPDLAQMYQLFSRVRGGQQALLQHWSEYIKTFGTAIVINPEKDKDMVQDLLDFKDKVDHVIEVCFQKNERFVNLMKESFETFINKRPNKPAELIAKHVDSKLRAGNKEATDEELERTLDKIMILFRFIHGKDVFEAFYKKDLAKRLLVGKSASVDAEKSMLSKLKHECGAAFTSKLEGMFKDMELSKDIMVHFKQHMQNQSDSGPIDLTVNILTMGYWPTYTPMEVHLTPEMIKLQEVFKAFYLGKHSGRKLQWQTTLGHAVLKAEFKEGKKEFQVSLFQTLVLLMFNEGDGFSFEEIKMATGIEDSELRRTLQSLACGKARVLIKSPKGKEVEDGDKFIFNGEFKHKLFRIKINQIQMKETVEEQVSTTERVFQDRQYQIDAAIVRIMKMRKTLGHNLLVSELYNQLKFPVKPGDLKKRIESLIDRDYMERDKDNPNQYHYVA
In data set [20] the target is T3, Protein cereblon/Androgen receptor/Cullin-4A. As to the kind of experiment: Protac activity at CRBN/Cullin 4A/Androgen receptor in human LNCaP cells assessed as Androgen receptor degradation. It is filed as cell-based.

As a reminder, the IC50 is the concentration that inhibits the measured activity by half. As for `COc1cc(N2C(=O)C(C)(C)c3cc(-c4cccnc4OC)ccc32)ccc1C#N`, inhibition in data set [1] was half-maximal at 79.6 nM (IC50). Take `CC1(C)C(=O)N(c2ccc(C#N)c(C(F)(F)F)c2)C(=S)N1CCCC(=O)NCCOCCOC(=O)CC12CC3CC(CC(C3)C1)C2`: in data set [2], the Activity is over 50%. With `CNC(=O)c1ccc(N2C(=S)N(c3cnc(C#N)c(C(F)(F)F)c3)C(=O)C23CCC3)cc1F` [APALUTAMIDE], the IC50 in [3] came out at 3000 nM. With `N#Cc1ccc(-n2c(=O)n(Cc3ccccc3)c3ccccc32)cc1C(F)(F)F`, the IC50 in data set [1] turned out to be 170 nM. As to `Fc1ccc(Cn2c(CC(F)(F)F)nc3cc(Cl)c(Cl)cc32)cc1`, the ID50 in the data set on Rattus norvegicus [4] turned out to be 0.13 mg/day. Moreover, the Activity with Rattus norvegicus [4] (at 2 mg) is reported as 84%. By ED50 is commonly meant the midpoint of the dose-response relation. Consider `C[C@@H]1CN(c2ccc(C#N)c(C(F)(F)F)c2)[C@@H](C)CN1C(=O)Nc1ccc(C(F)(F)F)nc1`, for which the 50% effective dose (ED50) in the data set on Rattus norvegicus [5] (Rattus norvegicus, Wistar, 360 h) came out at 2.2 mg/kg/day. Moreover, in the data set on Rattus norvegicus [5] (dose 10 mg/kg), the Activity is 67%. `COc1ccc(/C=C/C(=O)/C=C(O)/C=C/c2ccc(OC)c(OC)c2)cc1OC`: the Activity in data set [6] and in [7] was over 80% throughout. Regarding `CC1(C)CN(Cc2ccccc2)C(=O)[C@@H]1Oc1ccc(C#N)c(C(F)(F)F)c1`, the Activity in [8] is recorded as 78%.

As for `CC(O)(COC(=O)c1ccccc1C(F)(F)F)c1cc2cc([N+](=O)[O-])c(C(F)(F)F)cc2[nH]1` (centres undefined), the 50% inhibitory concentration (IC50) on Androgen receptor [9] came to 140 nM. Regarding `O=c1[nH]nc(Cc2c(Cl)cccc2Cl)c2ccccc12`, the IC50 in the data set on LNCaP turned out to be 560 nM; in the data set on SC-3, 180 nM.

`CNC(=O)c1ccc(N2C(=S)N(c3ccc(C#N)c(C(F)(F)F)c3)C(=O)C2(C)C)cc1F` [ENZALUTAMIDE]: the results for the IC50 (in the data set with LNCaP; in data set [3]) were 36 nM and 3000 nM, respectively. With `N#Cc1ccc([C@H]2CCCC[C@H]2O)cc1C(F)(F)F`, the results for the half-inhibitory concentration (IC50) at Androgen receptor [10] and against Androgen receptor [11] were 26 nM and 90 nM, respectively. Further, in [8], the Activity was determined as 85%. In the case of `C[C@@]1(c2ccc(O)cc2)NC(=O)N(c2ccc(C#N)c(C(F)(F)F)c2)C1=O`, the concentration for half-maximal inhibition (IC50) at Androgen receptor [12] was found to be 0.9 nM. A word on the Ki: it is a dissociation constant, usually derived from enzyme kinetics or from competition with a known ligand. For `C[C@@]12O[C@@](C)(C[C@H]1O)[C@@H]1C(=O)N(c3ccc(C#N)c(I)c3)C(=O)[C@@H]12`, the inhibition constant (Ki) at Androgen receptor [13] turned out to be 2.4 nM. This compound gave a half-maximal inhibitory concentration (IC50) against Androgen receptor [14] of 19 nM. As for `CC(C)N1C[C@@]2(C)O[C@](C)(C1)[C@H]1C(=O)N(c3ccc(C#N)c(C(F)(F)F)c3)C(=O)[C@H]12`, on Androgen receptor [13], the Ki was 14 nM. For the same compound, the IC50 against Androgen receptor [14] came out at 32 nM; against Androgen receptor [15], 125 nM. With `N#Cc1ccc(N2CCC[C@@H]2[C@@H](O)C(F)(F)F)cc1C(F)(F)F` [VK5211], the inhibition constant Ki at Androgen receptor [10] worked out at 1 nM.

At Androgen receptor [13], `CCCCc1ccc(OC(=O)N2C[C@@H]3C[C@H]2[C@@H]2C(=O)N(c4ccc([N+](=O)[O-])c5ccccc45)C(=O)N32)cc1` gave a Ki of 73 nM. Besides, the concentration for half-maximal inhibition (IC50) on Androgen receptor [14] is 60 nM; on Androgen receptor [15] it was 4750 nM. `CC(c1ccccc1)N(C)c1ccc(C#N)c(C(F)(F)F)n1` (centres undefined): the 50% inhibitory concentration (IC50) at Androgen receptor [10] came out at 20 nM; against Androgen receptor [11], 45 nM. Also, in data set [8], the Activity was determined as 83%.

On to `CC1(C)CN(CCC#N)C(=O)[C@@H]1Oc1ccc(C#N)c(Cl)c1`, for which, in [16], the Activity was found to be 89%. `CC1(C)CN(CCC#N)C(=O)[C@@H]1Oc1ccc(C#N)c(C(F)(F)F)c1` yielded an Activity in [16] of 89%. The term EC50 denotes the concentration giving half of the maximal effect. For the compound `Cc1c(N2CC[C@](C)(O)[C@@H]2C)ccc(C#N)c1Cl`, the IC50 on Androgen receptor [10] was found to be 1 nM. Moreover, the EC50 on Androgen receptor [17] came out at 0.29 nM. Broadly, the bioavailability is the share of a dose that reaches the circulation, judged against a reference dose that is usually intravenous. As usually defined, the DC50 is the midpoint of the concentration-degradation curve. Regarding `CN(c1ccc(C#N)c(Cl)c1)[C@H]1CC[C@H](NC(=O)c2ccc(N3CCN(C4CN(c5ccc6c(c5)C(=O)N(C5CCC(=O)NC5=O)C6=O)C4)CC3)cc2)CC1` (some centres undefined), in data set [18], the bioavailability is 51%. Besides, the DC50 in [19] and in data set [20] was under 0.1 nM throughout.

The values above are taken from ChEMBL document CHEMBL5137058, “Therapeutic Strategies to Target the Androgen Receptor” (J Med Chem, 2022).
